Data as given in patent US20220380341A1, “INHIBITORS OF HIV-1 NEF FOR THE TREATMENT OF HIV DISEASE” (priority 2018, published 2022).
Where two headings read alike, the source gives them in different places.

Assays:
TZM-bl cell line = assay type: cell-based; conditions: human, 1 μM
Experimental: (§1) In particular, the tables show antiretroviral activity as percent inhibition of HIV-1 infectivity at 1 μM. In brief, this assay uses the TZM-bl reporter cell line, which carries a stable copy of the HIV-1 LTR coupled to luciferase. Cells are infected with HIV-1NL4-3 in the presence and absence of each compound, and luciferase activity is measured 48 h later. This assay measures early events in the HIV-1 life cycle, including viral entry, reverse transcription, nuclear entry and integration, and viral transcription. All assays include control cells infected with Nef-defective HIV-1, which replicates at 30-50% of wild-type in this system. Results are normalized to percent inhibition relative to DMSO-treated control cells infected with wild-type HIV-1 (0% inhibition) and DMSO-treated cells infected with Nef-defective HIV-1 (100% of the Nef-dependent effect)—see column 3. In addition, cell viability is measured in the TZM-bl cell line in the presence of each test compound and in the absence of HIV-1 infection, using the Cell Titer Blue cell viability assay (Promega; column 4).

HIV-1 NefNL4-3 = HIV-1 NefNL4-3 (Human immunodeficiency virus type 1 group M subtype B, UniProt P03406, A33V/T15A/T51N/V11I); experiment: Surface plasmon resonance binding to recombinant full-length Nef (NL4-3); conditions: for Nef NL4-3 Binding, SPR 1:1 or 2-site fitting KD1: 1:1 Langmuir fit where the KD2 cell says '1 to 1 fitting', else 2-site fit; for RU30/RUNef (extent of binding): response units at 30 μM relative to Nef immobilized on the SPR chip
HIV-1NL4-3 = experiment: HIV-1 infectivity assay in TZM-bl reporter cell line (LTR-luciferase, 48 h); assay type: cell-based; conditions: Human immunodeficiency virus 1, TZM-bl
Experimental: as §1

[1] = 48 h, Table 1, TZM-bl cells, 1 μM, 48 h, 100% = Nef-defective HIV-1, read-out: HIV-1 Infectivity % Inhibition Norm. to Δ-Nef @ 1 μM
[2] = KD, M, Table 4, SPR fit 1:1 Langmuir, KD = koff/kon
[3] = Table 4, 1:1 Langmuir fit, T = 1/koff
[4] = 1.0 μM, TZM-bl reporter cell line, Table 4, read-out: % Infectivity Inhibition
[5] = KD, M, Table 4, SPR fit 2-step induced fit, KD = koff/kon × koff2/(koff2 + kon2)
[6] = Nef NL4-3 Binding, SPR 2-state fitting KD, Table 1, 2-step induced-fit model
[7] = Table 4, 2-step induced fit, T = 1/koff2

SMILES	Percent Viability @ 1 μM (TZM-bl cells) (TZM-bl cell line)	Nef NL4-3 Binding, SPR 1:1 or 2-site fitting KD1 (HIV-1 NefNL4-3; Table 1)	inhibition at 1 µM (HIV-1NL4-3; [1])	Kd (HIV-1 NefNL4-3)	% Cell Viability (TZM-bl cell line)	Kd (HIV-1 NefNL4-3; [2])	T, minutes (residence time) (HIV-1 NefNL4-3; [3])	RU30/RUNef (extent of binding) (HIV-1 NefNL4-3)	inhibition at 1 µM (HIV-1NL4-3; [4])	Kd (HIV-1 NefNL4-3; [5])	Kd (HIV-1 NefNL4-3; Nef NL4-3 Binding, SPR 1:1 or 2-site fitting KD2, Table 1, 2-site fit, second component)	Kd (HIV-1 NefNL4-3; [6])	T, minutes (residence time) (HIV-1 NefNL4-3; [7])	Kd (HIV-1 NefNL4-3; read-out: Nef NL4-3 Binding, SPR 1:1 or 2-site fitting KD2, Table 1, 2-site fit, second component)
Oc1c(CCn2nccn2)c(-c2ccc(C(F)(F)F)cc2)nn1-c1nc2ccccc2[nH]1 [Compound I-141, 1-(1H-1,3-benzodiazol-2-yl)-4-[2-(2H-1,2,3-triazol-2-yl)ethyl]-3-[4-(trifluoromethyl)phenyl]-1H-pyrazol-5-ol]	99.5%	No Interaction	8.7%											
Cc1nccn1CCc1c(-c2ccc(C(F)(F)F)cc2)nn(-c2nc3ccccc3[nH]2)c1O [Compound I-142, 1-(1H-1,3-benzodiazol-2-yl)-4-[2-(2-methyl-1H-imidazol-1-yl)ethyl]-3-[4-(trifluoromethyl)phenyl]-1H-pyrazol-5-ol]	100.2%		-7.8%	32800 nM										
Oc1c(CCn2cc(Cl)cn2)c(-c2ccc(C(F)(F)F)cc2)nn1-c1nc2ccccc2[nH]1 [Compound I-143, 1-(1H-1,3-benzodiazol-2-yl)-4-[2-(4-chloro-1H-pyrazol-1-yl)ethyl]-3-[4-(trifluoromethyl)phenyl]-1H-pyrazol-5-ol]	98.9%		-19.6%	426 nM	98.9%	426 nM	1.75E + 01 minutes	1.02E- 03	0%					
Oc1c(CCc2ccccn2)c(-c2ccc(C(F)(F)F)cn2)nn1-c1nc2ccccc2[nH]1 [Compound I-146, 1-(1H-1,3-benzodiazol-2-yl)-4-[2-(pyridin-2-yl)ethyl]-3-[5-(trifluoromethyl)pyridin-2-yl]-1H-pyrazol-5-ol]	98.5%		5.7%	1650 nM	98.5%	1650 nM	3.67E + 00 minutes	6.42E- 04	5.7%					
Oc1c(CCc2ccc(Br)cc2)c(-c2ccc(C(F)(F)F)cn2)nn1-c1nc2ccccc2[nH]1 [Compound I-147, 1-(1H-1,3-benzodiazol-2-yl)-4-[2-(4-bromophenyl)ethyl]-3-[5-(trifluoromethyl)pyridin-2-yl]-1H-pyrazol-5-ol]	97.6%		59.3%	0.0752 nM	97.6%	0.0752 nM	4.30E + 04 minutes	2.11E- 03	59.3%					
CS(=O)(=O)c1ccc(-c2nn(-c3nc4ccccc4[nH]3)c(O)c2CCC2CCOCC2)cc1 [Compound I-149, 1-(1H-1,3-benzodiazol-2-yl)-3-(4-methanesulfonylphenyl)-4-[2-(oxan-4-yl)ethyl]-1H-pyrazol-5-ol]	98.5%		54.5%	2330 nM										
Oc1c(CCC2CCOCC2)c(-c2cccc(F)c2)nn1-c1nc2ccccc2[nH]1 [Compound I-150, 1-(1H-1,3-benzodiazol-2-yl)-3-(3-fluorophenyl)-4-[2-(oxan-4-yl)ethyl]-1H-pyrazol-5-ol]	77.7%		53.9%		77.7%			4.75E- 03	53.9%	1070 nM	10400 nM	1070 nM	9.69E + 00 minutes	
OCCc1c(-c2ccc(C(F)(F)F)cc2)nn(-c2nc3ccccc3[nH]2)c1O [Compound I-153, 1-(1H-1,3-benzodiazol-2-yl)-4-(2-hydroxyethyl)-3-[4-(trifluoromethyl)phenyl]-1H-pyrazol-5-ol]	99.9%		-20.1%	68.8 nM	99.9%	68.8 nM	9.31E + 00 minutes	9.06E- 04	0%					
CS(=O)(=O)c1ccc(-c2nn(-c3nc4ccccc4[nH]3)c(O)c2CCC2CCN(CC(F)(F)F)CC2)cc1 [Compound I-154, 1-(1H-1,3-benzodiazol-2-yl)-3-(4-methanesulfonylphenyl)-4-{2-[1-(2,2,2-trifluoroethyl)piperidin-4-yl]ethyl}-1H-pyrazol-5-ol]	69.3%		45.4%	28800 nM	69.3%	28800 nM	6.80E + 00 minutes	4.50E- 03	45.4%					
O=C1CN(Cc2nn(-c3nc4ccccc4[nH]3)c(O)c2CCc2ccc(F)cc2)CCN1c1ccccc1 [Compound I-155, 4-{[1-(1H-1,3-benzodiazol-2-yl)-4-[2-(4-fluorophenyl)ethyl]-5-hydroxy-1H-pyrazol-3-yl]methyl}-1-phenylpiperazin-2-one]	98.2%		-5.9%	3400 nM										
Cc1nn(-c2nc3ccccc3[nH]2)c(O)c1Cc1ccc(Cl)cc1F [Compound I-156, 1-(1H-1,3-benzodiazol-2-yl)-4-[(4-chloro-2-fluorophenyl)methyl]-3-methyl-1H-pyrazol-5-ol]	101.5%		15.4%	8.56 nM	100%	8.56 nM	7.34E + 02 minutes	3.62E- 03	15.4%					
Oc1c(CCc2ccc(F)cc2)c(CN2CCOCC2)nn1-c1nc2ccccc2[nH]1 [Compound I-157, 1-(1H-1,3-benzodiazol-2-yl)-4-[2-(4-fluorophenyl)ethyl]-3-[(morpholin-4-yl)methyl]-1H-pyrazol-5-ol]	100.7%		13.2%	7800 nM										
O=C(OCc1ccccc1)N1CCC(c2nn(-c3nc4ccccc4[nH]3)c(O)c2CCc2ccc(F)cc2)CC1 [Compound I-158, benzyl 4-[1-(1H-1,3-benzodiazol-2-yl)-4-[2-(4-fluorophenyl)ethyl]-5-hydroxy-1H-pyrazol-3-yl]piperidine-1-carboxylate]	92.0%	No Interaction	101%											
O=C(OCc1ccccc1)N1CCCC(c2nn(-c3nc4ccccc4[nH]3)c(O)c2CCc2ccc(F)cc2)C1 (stereo not drawn) [Compound I-160, benzyl 3-[1-(1H-1,3-benzodiazol-2-yl)-4-[2-(4-fluorophenyl)ethyl]-5-hydroxy-1H-pyrazol-3-yl]piperidine-1-carboxylate]	93.7%		33.4%	0.0063 nM	93.7%			1.74E- 02	33.4%	0.00238 nM			7.41E + 06 minutes	2620 nM
Cc1ccn(CCc2c(-c3ccc(C(F)(F)F)cc3)nn(-c3nc4ccc(Cl)cc4[nH]3)c2O)n1 [Compound I-163, 1-(6-chloro-1H-1,3-benzodiazol-2-yl)-4-[2-(3-methyl-1H-pyrazol-1-yl)ethyl]-3-[4-(trifluoromethyl)phenyl]-1H-pyrazol-5-ol]	96.6%		0.3%	1010 nM	96.6%			4.48E- 03	0.3%	5820 nM		5820 nM	1.44E + 01 minutes	
O=C(OCc1ccccc1)N1CCC(c2c(-c3ccc(C(F)(F)F)cc3)nn(-c3nc4ccccc4[nH]3)c2O)CC1 [Compound I-164, benzyl 4-[1-(1H-1,3-benzodiazol-2-yl)-5-hydroxy-3-[4-(trifluoromethyl)phenyl]-1H-pyrazol-4-yl]piperidine-1-carboxylate]	93.6%	No Interaction	64.9%											
Oc1c(CCc2ccc(F)cc2)c(-c2ccccc2)nn1-c1nc2cc(Cl)ccc2[nH]1 [Compound I-165, 1-(5-chloro-1H-1,3-benzodiazol-2-yl)-4-[2-(4-fluorophenyl)ethyl]-3-phenyl-1H-pyrazol-5-ol]	89.6%		25.3%	689 nM	89.6%			4.14E- 02	25.3%	636 nM		636 nM	5.10E + 00 minutes	
